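All cell lines were grown in 96-well plates and treated with compound for 48 hours. GI50 = concentration required for 50% inhibition of growth. At the TGI there is no net growth.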
Experiments:
Assay in all cases: NCI anticancer screen, dose series, 48 h
A549 NSCLC = system: A549 NSCLC
SF-268 CNS = system: SF-268 CNS
A498 renal = system: A498 renal
RPMI-8226 leukemia = system: RPMI-8226 leukemia
OVCAR-3 ovarian = system: OVCAR-3 ovarian
ACHN renal = system: ACHN renal
HCC-2998 colon = system: HCC-2998 colon
SK-MEL-5 melanoma = system: SK-MEL-5 melanoma
HCT-116 colon = system: HCT-116 colon
CCRF-CEM leukemia = system: CCRF-CEM leukemia

Structure (SMILES) | GI50 (A549 NSCLC) [µM] | TGI (A549 NSCLC) [µM] | GI50 (SF-268 CNS) [µM] | TGI (SF-268 CNS) [µM] | GI50 (A498 renal) [µM] | TGI (A498 renal) [µM] | GI50 (RPMI-8226 leukemia) [µM] | TGI (RPMI-8226 leukemia) [µM] | GI50 (OVCAR-3 ovarian) [µM] | TGI (OVCAR-3 ovarian) [µM] | GI50 (ACHN renal) [µM] | TGI (ACHN renal) [µM] | GI50 (HCC-2998 colon) [µM] | TGI (HCC-2998 colon) [µM] | GI50 (SK-MEL-5 melanoma) [µM] | TGI (SK-MEL-5 melanoma) [µM] | GI50 (HCT-116 colon) [µM] | TGI (HCT-116 colon) [µM] | TGI (CCRF-CEM leukemia) [µM] | GI50 (CCRF-CEM leukemia) [µM]
COc1ccc(-n2c3c(c4c(CN5CCOCC5)c(O)ccc42)CCc2ccccc2C3=O)cc1 | > 100 | > 100 | > 100 | > 100 | > 100 | > 100 | 24.4 | > 100 | 25.4 | > 100 | > 100 | > 100 | > 100 | > 100 | 63.1 | > 100 | > 100 | > 100 |  | 
CO[C@@H]1CC(=O)C2(CC(=O)O[C@@H]2/C=C(\C)CCC=C(C)C)C[C@@H]1O (some centres not stated) | 1.65 | > 12.2 | 1.18 | 4.74 | 1.66 | 4.63 | 0.118 | 0.432 | 0.839 | 2.28 | 0.817 | 1.78 | 0.214 | 0.814 | 0.913 | 2.13 | 0.489 | 1.14 |  | 
NC(=O)C(c1ccccc1)N1CCOCC1 (configuration not stated) |  | > 100 |  | > 100 |  | > 100 |  | > 100 |  | > 100 |  | > 100 |  |  |  | > 100 |  | > 100 | > 100 | 
CN1CCN(Cc2ccc(NC(=O)c3ccc(C#Cc4c(N)ncc5ccc(F)cc45)cc3)cc2C(F)(F)F)CC1 | 1.05 | 2.19 | 0.948 | 2.14 | 1.79 | 9.71 | 1.08 | 2.48 | 1.4 | 3.68 | 0.97 | 1.71 | 0.87 | 1.62 | 0.871 | 1.58 |  |  |  | 
O=C(Cc1cccc(OC(F)(F)F)c1)Nc1ccc(CCCCc2nnc(NC(=O)Cc3ccccn3)s2)nn1 |  |  | 13.6 | 39.1 |  |  | 0.452 | 32.3 | 17 | > 100 | 20.9 | > 100 | 52.4 | > 100 | 16.1 | > 100 | 16.2 | > 100 | > 100 | 32.1
O=C(C(=O)N1CC2C=CC1CC2)c1c[nH]c2ccccc12 (configuration not stated) |  | > 100 |  | > 100 |  | > 100 |  | > 100 |  |  |  | > 100 |  | > 100 |  | > 100 |  | > 100 | > 100 | 
Fc1ccc(C2SCc3nc4ccccc4n32)cc1 (configuration not stated) |  | > 100 |  | > 100 |  |  |  | > 100 |  | 77.6 |  | > 100 |  |  |  | 38 |  | > 100 | > 100 | 
Cc1ccc(SC2=CC(=O)c3nc4ccccc4c4ccnc2c34)cc1 | > 79.8 | > 100 | 29.7 | > 70.7 | > 100 | > 100 | 30.1 | > 100 | 23.2 | > 54.7 | 31 | > 100 | > 67.8 | > 100 | 29.1 | > 66.8 | 22.7 | > 56.8 |  | 

Source: PubChem BioAssay (NCI)
